This note sets out measurements from ChEMBL document CHEMBL5727886, “Bicyclic compounds as dual ATX/CA inhibitors” (2020).

The target of this test is Carbonic anhydrase 2 (Homo sapiens, UniProt P00918). Put plainly: Then 30 μL of 16 nM hCA II solution was added (8 nM final concentration), mixed five times. 30 μL of 4-NPA substrate solution was added (2.5 mM final concentration), mixed five times.

For the molecule `NS(=O)(=O)c1ccc(C(=O)N2C[C@H]3CN(C(=O)/C=C/c4ccc(OC(F)(F)F)cc4)C[C@]3(F)C2)c(F)c1` (relative stereo), half-maximal inhibition (IC50) was put at 6 nM.
